# Results reported in ChEMBL document CHEMBL1201862, “PubChem BioAssay data set” (2004).
#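 Exposure lasted 48 hours, with cells grown in 96-well plates and compounds tested at five concentrations. The concentration for 50% growth inhibition is given as GI50.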 Active and inactive are the calls of the source. Cut-off read from the data, not from the text of the source: active = GI50 up to about 1.1 µM and inactive = higher. Non-standard residues stand in square brackets, D forms with d. Residues, ends and D or L forms follow the SMILES beside them. ξ: configuration not given here. *: point of attachment. NMeF = CN[C@@H](Cc1ccccc1)C(=O)O; ξNMeV = CNC(C(=O)O)C(C)C; Boc = CC(C)(C)OC(=O)*; OBn = c1ccc(CO*)cc1
# Legend:
# Assay in all cases: DTP human tumour cell line panel, 48 h
# HT-29 = test system: HT-29
# SK-OV-3 = test system: SK-OV-3
# SK-MEL-5 = test system: SK-MEL-5
# NCI-H23 = test system: NCI-H23
# HCT-15 = test system: HCT-15
# M14 = test system: M14
# NCI/ADR-RES = test system: NCI/ADR-RES
# NCI-H522 = test system: NCI-H522
# K562 = test system: K562
# SF-539 = test system: SF-539
# SF-295 = test system: SF-295
# CCRF-CEM = test system: CCRF-CEM
# OVCAR-5 = test system: OVCAR-5
# RXF 393 = test system: RXF 393
# NCI-H460 = test system: NCI-H460
# HOP-62 = test system: HOP-62
# SW-620 = test system: SW-620
# RPMI-8226 = test system: RPMI-8226
# HOP-92 = test system: HOP-92
SMILES,GI50 (HT-29),GI50 (SK-OV-3),GI50 (SK-MEL-5),GI50 (NCI-H23),GI50 (HCT-15),GI50 (M14),GI50 (NCI/ADR-RES),GI50 (NCI-H522),GI50 (K562),GI50 (SF-539),GI50 (SF-295),GI50 (CCRF-CEM),GI50 (OVCAR-5),GI50 (RXF 393),GI50 (NCI-H460),GI50 (HOP-62),GI50 (SW-620),GI50 (RPMI-8226),GI50 (HOP-92)
CN(CCN1C(=O)c2cccc3cccc(c23)C1=O)CCN1C(=O)c2cccc3cccc(c23)C1=O,> 100 µM (inactive),4.29 µM (inactive),> 100 µM (inactive),16.9 µM (inactive),0.178 µM,> 100 µM (inactive),13.5 µM (inactive),13.2 µM (inactive),73.1 µM (inactive),32.7 µM (inactive),12.8 µM (inactive),2.18 µM (inactive),> 100 µM (inactive),23.3 µM (inactive),16.3 µM (inactive),12.5 µM (inactive),,,
C[N+]1([O-])CCC(O)(C2CC2)CC1 (stereo not given),> 100 µM (inactive),> 100 µM (inactive),> 100 µM (inactive),> 100 µM (inactive),> 100 µM,> 100 µM (inactive),> 100 µM (inactive),,> 100 µM (inactive),,> 100 µM (inactive),> 100 µM (inactive),> 100 µM (inactive),> 100 µM (inactive),,> 100 µM (inactive),> 100 µM (inactive),> 100 µM (inactive),
CCC(=O)NC(Nc1cc(C)on1)(C(F)(F)F)C(F)(F)F,> 100 µM (inactive),> 100 µM (inactive),> 100 µM (inactive),> 100 µM (inactive),> 100 µM,> 100 µM (inactive),> 100 µM (inactive),> 100 µM (inactive),> 100 µM (inactive),> 100 µM (inactive),,> 100 µM (inactive),> 100 µM (inactive),> 100 µM (inactive),> 100 µM (inactive),> 100 µM (inactive),> 100 µM (inactive),> 100 µM (inactive),> 100 µM (inactive)
CN(c1nc(=[N+](C)C)ss1)C1CCCCC1,> 100 µM (inactive),> 100 µM (inactive),68.7 µM (inactive),74.3 µM (inactive),> 100 µM,> 100 µM (inactive),,> 100 µM (inactive),> 100 µM (inactive),> 100 µM (inactive),93.1 µM (inactive),6.92 µM (inactive),> 100 µM (inactive),> 100 µM (inactive),13.3 µM (inactive),> 100 µM (inactive),> 100 µM (inactive),62.1 µM (inactive),> 100 µM (inactive)
C=CCCCCCC(O)C(O)C/C=C\C/C=C\CC (stereo not given),> 18.8 µM (inactive),> 18.8 µM (inactive),> 17.5 µM (inactive),> 17.8 µM (inactive),> 18.8 µM,> 18.8 µM (inactive),,> 18.8 µM (inactive),> 12 µM (inactive),> 18.8 µM (inactive),> 18.8 µM (inactive),> 18.8 µM (inactive),> 18.8 µM (inactive),> 18.8 µM (inactive),13.5 µM (inactive),> 16.8 µM (inactive),> 18.8 µM (inactive),> 18.8 µM (inactive),> 18.8 µM (inactive)
O=C(O)CCC1(CCC(=O)O)CCCCCCCCC(CCC(=O)O)(CCC(=O)O)C(=O)C1=O,> 100 µM (inactive),> 100 µM (inactive),,> 100 µM (inactive),> 100 µM,> 100 µM (inactive),> 100 µM (inactive),> 100 µM (inactive),> 100 µM (inactive),> 100 µM (inactive),> 100 µM (inactive),,> 100 µM (inactive),,> 100 µM (inactive),> 100 µM (inactive),> 100 µM (inactive),< 0.01 µM (active),> 100 µM (inactive)
CC(=O)OCC1OC(n2c3c(cc(C#N)c2=S)CCCCCC3)C(OC(C)=O)C(OC(C)=O)C1OC(C)=O (stereo not given),41.2 µM (inactive),,72.1 µM (inactive),> 100 µM (inactive),97.5 µM,> 100 µM (inactive),> 100 µM (inactive),76.4 µM (inactive),32.1 µM (inactive),> 100 µM (inactive),> 100 µM (inactive),47.3 µM (inactive),> 100 µM (inactive),> 100 µM (inactive),42.2 µM (inactive),> 100 µM (inactive),,55.5 µM (inactive),> 100 µM (inactive)
O=C1Nc2cccc(Cl)c2/C1=C\c1cccnc1,5.92 µM (inactive),4.12 µM (inactive),11.4 µM (inactive),3.75 µM (inactive),6.62 µM,6.61 µM (inactive),4.43 µM (inactive),9.66 µM (inactive),5.85 µM (inactive),12.4 µM (inactive),16.7 µM (inactive),4.58 µM (inactive),3.77 µM (inactive),2.83 µM (inactive),8.22 µM (inactive),6.12 µM (inactive),9.57 µM (inactive),,27.7 µM (inactive)
CCCC(N)C(=O)c1ccccc1 (stereo not given),> 100 µM (inactive),> 100 µM (inactive),> 100 µM (inactive),> 100 µM (inactive),> 100 µM,> 100 µM (inactive),,> 100 µM (inactive),> 100 µM (inactive),> 100 µM (inactive),> 100 µM (inactive),> 100 µM (inactive),> 100 µM (inactive),> 100 µM (inactive),> 100 µM (inactive),> 100 µM (inactive),> 100 µM (inactive),> 100 µM (inactive),> 100 µM (inactive)
CCOC(=O)c1cnc2[nH]c(=O)c3ccccc3n2c1=O,> 100 µM (inactive),> 100 µM (inactive),> 100 µM (inactive),> 100 µM (inactive),> 100 µM,> 100 µM (inactive),,> 100 µM (inactive),65 µM (inactive),> 100 µM (inactive),> 100 µM (inactive),> 100 µM (inactive),> 100 µM (inactive),> 100 µM (inactive),> 100 µM (inactive),> 100 µM (inactive),> 100 µM (inactive),> 100 µM (inactive),> 100 µM (inactive)
CC(C)C(C(=O)N1CCC[C@@H]1C(=O)OCc1ccccc1)N(C)C(=O)C(C(C)C)N(C)C(=O)[C@H](Cc1ccccc1)N(C)C(=O)[C@H](NC(=O)OC(C)(C)C)C(C)C (stereo not given in full) (Boc-[dV][NMeF][ξNMeV][ξNMeV][dP]-OBn),> 45.4 µM (inactive),> 100 µM (inactive),14.9 µM (inactive),> 81.3 µM (inactive),> 30.9 µM,> 100 µM (inactive),,> 100 µM (inactive),13.7 µM (inactive),> 100 µM (inactive),9.04 µM (inactive),> 54.5 µM (inactive),> 100 µM (inactive),> 100 µM (inactive),> 24.3 µM (inactive),> 100 µM (inactive),> 100 µM (inactive),10.9 µM (inactive),68.4 µM (inactive)
